From PubChem BioAssay (NCI) come the findings set out here.

Molecules are shown by their SMILES.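 In this assay, cells in 96-well plates receive the compound at five concentrations for 48 hours. Endpoints are linearly interpolated between the surrounding concentrations. GI50 marks 50% less growth. TGI marks complete inhibition of growth.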

Common to all, as to assay: growth of human tumour cells (NCI), 48 h
The subject of assay [1] is UO-31 renal.
The test system of assay [2] is MALME-3M melanoma.
Assay [3] deals with NCI-H522 lung.
Assay [4] deals with NCI-H226 lung.
In assay [5] the test system is IGROV1 ovarian.
In assay [6] the test system is MOLT-4 leukemia.
For assay [7], the system named is OVCAR-8 ovarian.
Assay [8] relates to SN12C renal.
Assay [9] relates to A498 renal.

On to `Nc1ccccc1C(=O)/C=C/c1ccccc1O`, for which the TGI in [1], in assay [2], in assay [3], in assay [4], in assay [5] and in [6] was over 100 µM throughout. The TGI in [7], in assay [8] and in assay [9] was over 100 µM in each case.
Regarding `O=C1c2ccccc2C2(O)N(c3ccccc3)C(=S)N(c3ccccc3)C12O` (stereo not drawn), the TGI in assay [1], in assay [2], in [3], in [4], in assay [5] and in assay [6] was over 100 µM each time. The TGI in assay [7], in [8] and in assay [9] was over 100 µM in each case.
For the compound `CC(C)CCCC(C)C1CCC2C3CC([N+](=O)[O-])=C4CC(O)CCC4(C)C3CCC12C` (stereo not drawn), the TGI turned out to be 39.2 µM in [2]; 33.6 µM in [3]; 50.1 µM in assay [5]; 88.2 µM in [6]; 47.4 µM in [7]; 32.1 µM in assay [8]. This compound also displayed a TGI in assay [9] of 40.6 µM.
For `N#Cc1c(CC(=O)O)cc(=O)n2c1[nH]c1ccccc12`, the TGI in assay [1], in [2], in [4], in [5], in assay [6] and in assay [7] was over 100 µM each time. For the same compound, the TGI in assay [8] and in assay [9] was over 100 µM in each case.
For `Cc1ccccc1NC(=O)CC(=O)NNCC(=O)Nc1nnc(-c2ccccc2)s1`, the TGI in assay [1], in assay [3], in [4], in assay [5], in [6] and in [7] was over 100 µM each time. The TGI in [8] and in assay [9] was over 100 µM throughout.
As to `O=C1Nc2ccc(Cl)cc2/C1=N/c1nc(-c2ccc(Cl)cc2)cs1`, in assay [6], the GI50 is 1.61 µM and the TGI was over 100 µM. Moreover, in [9], the GI50 is 1.8 µM and the TGI was 4.98 µM.
Take `CNCc1cccc2c1OCCOCCOCCNS(=O)(=O)c1ccc(cc1)-c1cnc(N)c(n1)C(=O)N2`: the GI50 in assay [1] is 9.82 µM; in assay [2] it was 1.55 µM; in [3] it was 1.31 µM; in assay [4] it was 2.21 µM; in assay [5], 0.513 µM; in [6], 0.557 µM. The GI50 in assay [7] is 1.61 µM; in assay [8], 1.22 µM; in assay [9], 1.36 µM. Moreover, the TGI in assay [1] was 23.1 µM; in [2], 3.08 µM; in assay [3], 3.15 µM; in [4] it was 8.09 µM; in assay [5] it was 3.89 µM; in [6], 7.68 µM. The TGI came out at 10.4 µM in [7], 3.79 µM in assay [8] and 3.79 µM in [9].
As to `O=C(CC1(O)C(=O)Nc2c(Cl)ccc(Cl)c21)c1ccc(Cl)cc1` (stereo not drawn), the TGI in assay [1] was over 100 µM; in assay [2], 71.8 µM; in assay [4] it was over 100 µM; in assay [5], 57.7 µM; in assay [7], 42.1 µM; in [8] it was 34.1 µM. This compound came in with a TGI in assay [9] of 82.5 µM.
Consider `CN(C)CCNC(=O)c1cccc2c1nc(-c1cccnc1)c1ccccc12`, for which the TGI in [1] came out at 10.8 µM; in assay [4], 16.5 µM; in assay [5], 26.3 µM; in [6] it was 6.32 µM; in assay [7], 54.8 µM; in assay [8], 35.4 µM. For the same compound, the TGI in assay [9] amounted to 15.7 µM.
Consider `O/N=C1/C(=C/c2ccc(OCc3ccccc3)cc2)CCCC1C(NO)c1ccc(OCc2ccccc2)cc1` (stereo not drawn), for which the TGI in assay [1] was over 100 µM; in assay [2], over 100 µM; in assay [3], 48 µM; in assay [4], over 100 µM; in [5], over 100 µM; in [6], over 100 µM. For the same compound, the TGI in assay [7] was over 100 µM; in assay [8], 9.54 µM; in assay [9], over 100 µM.
Regarding `CC1(C)CC(=O)C(C(=O)Nc2cccs2)=C(O)C1`, the TGI was 81.7 µM in assay [1]; over 100 µM in [2]; over 100 µM in [3]; 86.8 µM in assay [4]; over 100 µM in [5]; 88.1 µM in assay [6]. The TGI in [7] was over 100 µM; in [8], over 100 µM; in [9] it was 88.9 µM.
As for `CCOC(=O)C1C(NC(N)=O)N(Cc2ccccc2)C(=O)N1Cc1ccccc1` (stereo not drawn), the TGI in assay [1], in [2], in [3], in assay [5], in assay [6] and in assay [7] was over 100 µM each time.
With `CC(C)(C)C1CC[C@H]2c3c([nH]c4ccccc34)[C@H]3C(=O)N(c4ccc(F)cc4)C(=O)[C@H]3[C@H]2C1` (stereo partly drawn), the TGI in [1] stood at 29.7 µM; in assay [2], 36.8 µM; in assay [3] it was 25.3 µM; in assay [4] it was 35.3 µM; in assay [5], 35.3 µM; in [6], 27.8 µM. Moreover, the TGI in [7] came out at 25.2 µM; in [8], 23.6 µM; in assay [9], 45.7 µM.
As for `CC(=O)NC(CCCNC(=O)OCc1ccccc1)C(=O)NCc1ccccc1` (stereo not drawn), the TGI in [1], in assay [2], in [3], in assay [4], in assay [5] and in assay [6] was over 100 µM throughout. Besides, the TGI in assay [7], in [8] and in assay [9] was over 100 µM throughout.
Regarding `CN1S(=O)(=O)N(C)P12(N=P(CP(=NP13(N(C)S(=O)(=O)N1C)N(C)S(=O)(=O)N3C)(c1ccccc1)c1ccccc1)(c1ccccc1)c1ccccc1)N(C)S(=O)(=O)N2C`, the TGI in assay [1], in [2], in [3], in assay [4], in assay [5] and in [6] was over 100 µM in each case. Further, the TGI in assay [7], in assay [8] and in assay [9] was over 100 µM each time.
